{
  "source": "patent US12138274B2",
  "about": "“Compositions and methods for the treatment of peripheral artery disease and cardiopulmonary diseases” (BOARD OF REGENTS OF THE UNIVERSITY OF NEBRASKA, priority 2018, dated 2024)",
  "type_in_all_cases": "in vivo, rat",
  "key": {"[1]": {"system": "vagotomized rats", "assay": "Pressor and sympatho-excitatory response to topical bradykinin in bleomycin-treated rats", "conditions": "BK 10 μg/ml; 4 weeks after bleomycin, compared to sham", "procedure": "For measuring vitals of the rats, a Millar catheter (SPR 524; size, 3.5-Fr; Millar Instruments, Houston, TX) was advanced through the right common carotid artery and progressed into the aorta and left in place to record arterial pressure (AP), mean arterial pressure (MAP), and heart rate (HR), using PowerLab (Model 16S) and LabChart software (version 7.0) (ADInstruments, Colorado Springs, CO). Renal sympathetic nerve activity (RSNA) and integrated RSNA (iRSNA) were also measured. RSNA was recorded as described (Gao, et al. (2005) Hypertension 45:1173-1181; Wang, et al. (2010) J. Appl. Physiol., 108:1365-1375; Becker, et al. (2016) J. Physiol., 594:5711-5725). In brief, the left kidney, renal artery, and nerves were exposed through a left retroperitoneal flank incision. Sympathetic nerves running on or beside the renal artery were identified. The renal sympathetic nerves were placed on a pair of platinum-iridium recording electrodes and cut distally to avoid recording afferent activity. Nerve activity was amplified ([…]) and filtered (bandwidth: 100 to 3000 Hz) using a Grass P55C preamplifier. […] At the end of the experiment, the rat was euthanized with an overdose of pentobarbital sodium. Respective noise levels were subtracted from the nerve recording data before percent changes from baseline were calculated. […]"}, "[2]": {"system": "Interferon Regulatory Factor 8 (IRF8)", "assay": "IRF8 protein expression in T1-T4 DRGs and stellate ganglia after bleomycin lung injury", "conditions": "4-weeks post-bleomycin rats"}, "[3]": {"system": "rats", "assay": "Premature ventricle contractions after intra-tracheal bleomycin", "conditions": "single intra-tracheal delivery 2.5 mg/kg", "source_text": "Bleomycin induces experimental lung fibrosis in a variety of animal models and it causes inflammatory and fibrotic reactions within a short period of time, even more so after intratracheal instillation."}},
  "data": [
    {"substance": "bleomycin", "values": [
      {"measurement": "pressor and sympatho-excitatory response to topical BK (FIG. 13)", "setting": "[1]", "result": "exaggerated pressor and sympatho-excitatory response"},
      {"measurement": "IRF8 protein expression in T1-T4 DRGs and stellate ganglia (FIG. 12)", "setting": "[2]", "result": "increases"},
      {"measurement": "premature ventricle contractions (PVC) (FIG. 14)", "setting": "[3]", "result": "dramatic increase"}
    ]}
  ]
}
